51 compounds from publication PMC12621019, “Restructuring Antiviral Quinazolinone Frameworks to Derive and Optimize Inhibitors of Chikungunya Virus” (ACS Medicinal Chemistry Letters, 2025) can be followed below.

Series [1] relates to CHIKV (strain 181/25mKate). Nature of the series: microbe, parasite or virus in culture. The series is classed as cell-based. As to conditions: Chikungunya virus, NHDF, 72 h, read-out: titer redn, log.
Series [2] is described as follows: Cytotoxicity assay (CellTiter Glo) in NHDF cells. The conditions noted are these: human, CC50, NHDF cells, maximum 40 μM. On the technique in general: ATP-based viability assays read luminescence as a measure of living cells.

By CC50 is commonly meant the concentration that lowers cell viability or growth by half. Higher therefore signals better tolerance by the cells.

For the compound `CC(C)N1CCN(c2cc3nc([C@H]4CCCNC4)n(-c4cccc(Cl)c4)c(=O)c3cc2Cl)CC1` [(S)-1w], the log reduction at 10 µM in series [1] amounted to 2.6. It took 14.8 µM to reach half-maximal cytotoxicity in series [2] (CC50 at 72 h).
In the same order, the values of `COc1c(F)cc(-n2c([C@@H]3CCCNC3)nc3cc(N4CCC(N5CCN(C)CC5)CC4)c(Cl)cc3c2=O)cc1F` [(R)-1p] are 2.5 and 13.1 µM.
In the same order, the values of `CC(C)N1CCN(c2cc3nc([C@@H]4CCCNC4)n(-c4ccc(Cl)cc4)c(=O)c3cc2Cl)CC1` [(R)-1v] are 3.4 and 14.2 µM.
In the same order, the values of `COc1c(F)cc(-n2c([C@@H]3CCCNC3)nc3cc(N4CCN(C(C)(C)C)CC4)c(Cl)cc3c2=O)cc1F` [(R)-1j] are 1.1 and 17.1 µM.
On to `COc1c(F)cc(-n2c([C@@H]3CCCNC3)nc3cc(N(C)CCN(C)C)c(Cl)cc3c2=O)cc1F` [(R)-1q], for which the log reduction at 10 µM in series [1] was determined as 0.6. Also, the midpoint of cytotoxicity in series [2], the CC50 at 72 h, lay at 26.6 µM.
In the same order, the values of `COc1c(F)cc(-n2c(-c3cccnc3)nc3cc(N4CCN(C(C)C)CC4)c(Cl)cc3c2=O)cc1F` [1ad] are 0 and above 40 µM.
As for `COc1c(F)cc(-n2c([C@H]3CCCCN3C)nc3cc(N4CCN(C(C)C)CC4)c(Cl)cc3c2=O)cc1F` [(R)-1z], in series [1], the log reduction at 10 µM was 0.4. The same compound displayed a 50% cytotoxic concentration (CC50) at 72 h in series [2] above 40 µM.
In the same order, the values of `COc1c(F)cc(-n2c(C3CCNCC3)nc3cc(N4CCN(C(C)C)CC4)c(Cl)cc3c2=O)cc1F` [1i] are 0.95 and 29.1 µM.
In the same order, the values of `COc1c(F)cc(-n2c([C@H]3CCCNC3)nc3cc(N4CCNCC4)c(Cl)cc3c2=O)cc1F` [(S)-1n] are 0.8 and 13.7 µM.
As for `CC(C)N1CCN(c2cc3nc([C@H]4CCCCN4)n(-c4ccc(Cl)cc4)c(=O)c3cc2Cl)CC1` [(R)-1x], the log reduction at 10 µM in series [1] worked out at 5.2. This compound yielded a CC50 at 72 h in series [2] of 12 µM.
In the same order, the values of `COc1c(F)cc(-n2c([C@H]3CCCN3)nc3cc(N4CCN(C(C)C)CC4)c(Cl)cc3c2=O)cc1F` [(R)-1d] are 2.3 and 19 µM.
In the same order, the values of `CC(C)N1CCN(c2cc3nc([C@@H]4CCCNC4)n(-c4cccc(Cl)c4)c(=O)c3cc2Cl)CC1` [(R)-1w] are 2.7 and 18 µM.
On to `COc1ccc(-n2c([C@@H]3CCCNC3)nc3cc(N4CCN(C(C)C)CC4)c(Cl)cc3c2=O)cc1` [(R)-1t], for which the log reduction at 10 µM in series [1] came out at 1.4. The CC50 at 72 h in series [2] was found to be 29.3 µM.
`COc1c(F)cc(-n2c([C@@H]3CCCN(c4ccccc4)C3)nc3cc(N4CCN(C(C)C)CC4)c(Cl)cc3c2=O)cc1F` [(R)-1aa]: the log reduction at 10 µM in series [1] turned out to be 0. The CC50 at 72 h in series [2] was above 40 µM.
In the same order, the values of `COc1c(F)cc(-n2c([C@H]3CCCNC3)nc3cc(N4CCN(C5CCN(C)CC5)CC4)c(Cl)cc3c2=O)cc1F` [(S)-1l] are 1.2 and 11.4 µM.
In the same order, the values of `COc1c(F)cc(-n2c([C@@H]3CCCNC3)nc3cc(N4CCN(C)CC4)c(Cl)cc3c2=O)cc1F` [(R)-1m] are 2.2 and 23.3 µM.
In the same order, the values of `COc1c(F)cc(-n2c([C@@H]3CCCNC3)nc3cc(N4CCNCC4)c(Cl)cc3c2=O)cc1F` [(R)-1n] are 0.7 and 16.5 µM.
As to `COc1c(F)cc(-n2c(-c3ccccn3)nc3cc(N4CCN(C(C)C)CC4)c(Cl)cc3c2=O)cc1F` [1ac], in series [1], the log reduction at 10 µM amounted to 0. The compound also displayed a CC50 at 72 h in series [2] above 40 µM.
In the same order, the values of `COc1c(F)cc(-n2c([C@@H]3CCCNC3)nc3cc(N4CCN(C5CCN(C)CC5)CC4)c(Cl)cc3c2=O)cc1F` [(R)-1l] are 2.8 and 11.6 µM.
On to `COc1c(F)cc(-n2c([C@@H]3CCCCN3)nc3cc(N4CCN(C(C)C)CC4)c(Cl)cc3c2=O)cc1F` [(S)-1h], for which the log reduction at 10 µM in series [1] turned out to be 1.7. The same compound showed a CC50 at 72 h in series [2] of 34.8 µM.
In the same order, the values of `COc1c(F)cc(-n2c([C@@H]3CCCNC3)nc3cc(N4CCN(C(C)C)CC4)c(Cl)cc3c2=O)cc1F` [(R)-1g] are 2.3 and 16.2 µM.
Take `CC(C)N1CCN(c2cc3nc([C@H]4CCCNC4)n(-c4ccccc4)c(=O)c3cc2Cl)CC1` [(S)-1s]: in series [1], the log reduction at 10 µM worked out at 1. Moreover, in series [2], the CC50 at 72 h was above 40 µM.
With `COc1c(F)cc(-n2c([C@H]3CCCNC3)nc3cc(N(C)CCN(C)C)c(Cl)cc3c2=O)cc1F` [(S)-1q], in series [1], the log reduction at 10 µM amounted to 1.2. In series [2], this compound displayed a CC50 at 72 h of 16.3 µM.
Turning to `COc1c(F)cc(-n2c([C@@H]3CCCN3)nc3cc(N4CCNCC4)c(Cl)cc3c2=O)cc1F` [(S)-1e], the log reduction at 10 µM in series [1] amounted to 1.6. The CC50 at 72 h in series [2] was 22.8 µM.
In the same order, the values of `COc1c(F)cc(-n2c([C@H]3CCCN3)nc3cc(N4CCN(C)CC4)c(F)cc3c2=O)cc1F` [(R)-1a] are 0.1 and above 40 µM.
In the same order, the values of `COc1c(F)cc(-n2c([C@@H]3CCCN3)nc3cc(N4CCN(C)CC4)c(F)cc3c2=O)cc1F` [(S)-1a] are 0.3 and above 40 µM.
In the same order, the values of `COc1c(F)cc(-n2c([C@@H]3CCCNC3)nc3ccc(Cl)cc3c2=O)cc1F` [(R)-1ab] are 0 and above 40 µM.
Turning to `COc1c(F)cc(-n2c([C@@H]3CCCN3)nc3cc(N4CCN(C)CC4)c(Cl)cc3c2=O)cc1F` [(S)-1c], in series [1], the log reduction at 10 µM was found to be 1. The CC50 at 72 h in series [2] is above 40 µM.
For the compound `COc1c(F)cc(-n2c([C@@H]3CCCN3)nc3cc(N4CCN(C(C)C)CC4)c(F)cc3c2=O)cc1F` [(S)-1b], in series [1], the log reduction at 10 µM was determined as 0.64. In series [2], this compound showed a CC50 at 72 h above 40 µM.
In the same order, the values of `CC(C)N1CCN(c2cc3nc([C@@H]4CCCNC4)n(C)c(=O)c3cc2Cl)CC1` [(R)-1r] are 0.5 and above 40 µM.
In the same order, the values of `CC(C)N1CCN(c2cc3nc([C@@H]4CCCNC4)n(-c4ccc(F)cc4)c(=O)c3cc2Cl)CC1` [(R)-1u] are 2.1 and 23.8 µM.
In the same order, the values of `COc1c(F)cc(-n2c([C@H]3CCCNC3)nc3cc(N4CCN(C)CC4)c(Cl)cc3c2=O)cc1F` [(S)-1m] are 1 and 24.8 µM.
Take `COc1c(F)cc(-n2c([C@@H]3CCCNC3)nc3cc(N4CCC(N5CCOCC5)CC4)c(Cl)cc3c2=O)cc1F` [(R)-1o]: the log reduction at 10 µM in series [1] worked out at 1.1. For the same compound, the CC50 at 72 h in series [2] is 20.6 µM.
In the same order, the values of `COc1c(F)cc(-n2c([C@H]3CCCNC3)nc3cc(N4CCN(C(C)C)CC4)c(Cl)cc3c2=O)cc1F` [(S)-1g] are 2.9 and 11.7 µM.
In the same order, the values of `COc1c(F)cc(-n2c([C@H]3CCCNC3)nc3cc(N4CCC(N5CCN(C)CC5)CC4)c(Cl)cc3c2=O)cc1F` [(S)-1p] are 1.8 and 12.1 µM.
In the same order, the values of `COc1c(F)cc(-n2c([C@H]3CCCN(C)C3)nc3cc(N4CCN(C(C)C)CC4)c(Cl)cc3c2=O)cc1F` [(S)-1y] are 1.1 and 29.1 µM.
For `COc1c(F)cc(-n2c([C@@H]3CCCN3)nc3cc(N4CCN(C(C)C)CC4)c(Cl)cc3c2=O)cc1F` [(S)-1d], the log reduction at 10 µM in series [1] was 1.3. The same compound came in with a CC50 at 72 h in series [2] above 40 µM.
In the same order, the values of `CC(C)N1CCN(c2cc3nc([C@@H]4CCCNC4)n(-c4ccccc4)c(=O)c3cc2Cl)CC1` [(R)-1s] are 0.9 and above 40 µM.
In the same order, the values of `COc1c(F)cc(-n2c([C@@H]3CCCNC3)nc3cc(N4CCN(c5ccccc5)CC4)c(Cl)cc3c2=O)cc1F` [(R)-1k] are above 4 and 11.3 µM.
In the same order, the values of `COc1c(F)cc(-n2c([C@H]3CCCNC3)nc3cc(N4CCN(C(C)(C)C)CC4)c(Cl)cc3c2=O)cc1F` [(S)-1j] are around 3 and 8.9 µM.
With `COc1c(F)cc(-n2c([C@@H]3CCN3)nc3cc(N4CCN(C(C)C)CC4)c(Cl)cc3c2=O)cc1F` [(S)-1f], in series [1], the log reduction at 10 µM came out at 0. For the same compound, in series [2], the CC50 at 72 h was above 40 µM.
Turning to `COc1ccc(-n2c([C@H]3CCCN3)nc3c(C)cc([N+](=O)[O-])cc3c2=O)cc1` [BDGR-49, reference compound], in series [1], the log reduction at 10 µM stood at 0.
As for `COc1c(F)cc(-n2c([C@H]3CCCN3)nc3cc(N4CCN(C(C)C)CC4)c(F)cc3c2=O)cc1F` [(R)-1b], in series [1], the log reduction at 10 µM came out at 1.3. The same compound yielded a CC50 at 72 h in series [2] above 40 µM.
In the same order, the values of `COc1c(F)cc(-n2c([C@H]3CCCNC3)nc3cc(N4CCC(N5CCOCC5)CC4)c(Cl)cc3c2=O)cc1F` [(S)-1o] are 0.3 and 30.1 µM.
In the same order, the values of `COc1c(F)cc(-n2c([C@H]3CCCN3)nc3cc(N4CCNCC4)c(Cl)cc3c2=O)cc1F` [(R)-1e] are 2.1 and 24.9 µM.
In the same order, the values of `COc1c(F)cc(-n2c([C@H]3CCN3)nc3cc(N4CCN(C(C)C)CC4)c(Cl)cc3c2=O)cc1F` [(R)-1f] are 0.1 and above 40 µM.
In the case of `CC(C)N1CCN(c2cc3nc([C@H]4CCCNC4)n(C)c(=O)c3cc2Cl)CC1` [(S)-1r], the log reduction at 10 µM in series [1] is 0.7. In series [2], the CC50 at 72 h was above 40 µM.
In the same order, the values of `CC(C)N1CCN(c2cc3nc([C@@H]4CCCCN4)n(-c4ccc(Cl)cc4)c(=O)c3cc2Cl)CC1` [(S)-1x] are 3.4 and 16.5 µM.
Take `CC(C)N1CCN(c2cc3nc([C@H]4CCCNC4)n(-c4ccc(Cl)cc4)c(=O)c3cc2Cl)CC1` [(S)-1v]: the log reduction at 10 µM in series [1] came out at 2. Besides, the CC50 at 72 h in series [2] was found to be 17.2 µM.
In the same order, the values of `COc1c(F)cc(-n2c([C@H]3CCCN3)nc3cc(N4CCN(C)CC4)c(Cl)cc3c2=O)cc1F` [(R)-1c] are 0.5 and above 40 µM.
`COc1c(F)cc(-n2c([C@@H]3CCCCN3C)nc3cc(N4CCN(C(C)C)CC4)c(Cl)cc3c2=O)cc1F` [(S)-1z]: the log reduction at 10 µM in series [1] came to 0.5. Moreover, the CC50 at 72 h in series [2] was determined as 36.5 µM.
